According to the NIST ThermoML archive (doi:10.1016/j.tca.2012.10.024):

Tests used:
[1] = refractive index (Na D-line) (dimensionless); xn = mol fraction of the nth substance listed; conditions: 101 kPa, Liquid, Standard Abbe refractometry
[2] = relative permittivity at zero frequency (dimensionless); xn = mol fraction of the nth substance listed; conditions: 101 kPa, Liquid, Parallel plate capacitor

COCCOCCOCCOCCOC [2,5,8,11,14-pentaoxapentadecane] + CCCCCO
Conditions | refractive index, 293.15 K | refractive index, 298.15 K | refractive index, 303.15 K | relative permittivity at zero frequency, 293.15 K | relative permittivity at zero frequency, 298.15 K | relative permittivity at zero frequency, 303.15 K
[1], x2 = 0.0505 | 1.4319 | 1.4302 | 1.4279 | – | – | –
[1], x2 = 0.1002 | 1.4315 | 1.4294 | 1.4273 | – | – | –
[1], x2 = 0.1509 | 1.4305 | 1.4286 | 1.4265 | – | – | –
[1], x2 = 0.1919 | 1.4301 | 1.4281 | 1.4259 | – | – | –
[1], x2 = 0.2458 | 1.4291 | 1.4272 | 1.4251 | – | – | –
[1], x2 = 0.291 | 1.4285 | 1.4265 | 1.4244 | – | – | –
[1], x2 = 0.3384 | 1.4276 | 1.4256 | 1.4236 | – | – | –
[1], x2 = 0.3986 | 1.4265 | 1.4246 | 1.4225 | – | – | –
[1], x2 = 0.4554 | 1.4256 | 1.4235 | 1.4215 | – | – | –
[1], x2 = 0.493 | 1.4248 | 1.4229 | 1.4207 | – | – | –
[1], x2 = 0.5496 | 1.4236 | 1.4217 | 1.4196 | – | – | –
[1], x2 = 0.5931 | 1.4227 | 1.4207 | 1.4186 | – | – | –
[1], x2 = 0.6455 | 1.4214 | 1.4194 | 1.4174 | – | – | –
[1], x2 = 0.6979 | 1.42 | 1.4181 | 1.416 | – | – | –
[1], x2 = 0.7424 | 1.4188 | 1.4168 | 1.4148 | – | – | –
[1], x2 = 0.7959 | 1.4172 | 1.4153 | 1.4133 | – | – | –
[1], x2 = 0.8372 | 1.4159 | 1.4141 | 1.4121 | – | – | –
[1], x2 = 0.8679 | 1.4149 | 1.4131 | 1.4111 | – | – | –
[1], x2 = 0.8987 | 1.4139 | 1.4121 | 1.41 | – | – | –
[1], x2 = 0.9225 | 1.413 | 1.4112 | 1.4092 | – | – | –
[1], x2 = 0.9488 | 1.412 | 1.4102 | 1.4081 | – | – | –
[1], x2 = 0.9793 | 1.4109 | 1.409 | 1.407 | – | – | –
[2], x2 = 0.0505 | – | – | – | 7.99 | 7.863 | 7.737
[2], x2 = 0.1002 | – | – | – | 7.97 | 7.843 | 7.715
[2], x2 = 0.1509 | – | – | – | 8.043 | 7.911 | 7.779
[2], x2 = 0.1919 | – | – | – | 8.041 | 7.906 | 7.771
[2], x2 = 0.2458 | – | – | – | 8.132 | 7.993 | 7.854
[2], x2 = 0.291 | – | – | – | 8.15 | 8.009 | 7.866
[2], x2 = 0.3384 | – | – | – | 8.271 | 8.119 | 7.968
[2], x2 = 0.3986 | – | – | – | 8.344 | 8.186 | 8.029
[2], x2 = 0.4554 | – | – | – | 8.523 | 8.35 | 8.18
[2], x2 = 0.493 | – | – | – | 8.615 | 8.438 | 8.26
[2], x2 = 0.5496 | – | – | – | 8.857 | 8.662 | 8.469
[2], x2 = 0.5931 | – | – | – | 9.027 | 8.819 | 8.615
[2], x2 = 0.6455 | – | – | – | 9.353 | 9.122 | 8.896
[2], x2 = 0.6979 | – | – | – | 9.71 | 9.454 | 9.203
[2], x2 = 0.7424 | – | – | – | 10.138 | 9.853 | 9.577
[2], x2 = 0.7959 | – | – | – | 10.73 | 10.413 | 10.103
[2], x2 = 0.8372 | – | – | – | 11.351 | 10.992 | 10.643
[2], x2 = 0.8679 | – | – | – | 11.894 | 11.506 | 11.123
[2], x2 = 0.8987 | – | – | – | 12.519 | 12.102 | 11.691
[2], x2 = 0.9225 | – | – | – | 13.119 | 12.665 | 12.217
[2], x2 = 0.9488 | – | – | – | 13.878 | 13.383 | 12.896
[2], x2 = 0.9793 | – | – | – | 14.929 | 14.377 | 13.834
